Here are results for twelve compounds from article PMC9851200, “Multiparameter phenotypic screening for endogenous TFEB and TFE3 translocation identifies novel chemical series modulating lysosome function” (Autophagy, 2022).

Where two headings read alike, the source gives them in different places.

Data set [1] has as its system SH-SY5Y cells. In words: Chemotype enrichment analysis of PKIS2 primary screen hit categories. As to conditions: PKIS2 primary screening, hit category.
Data set [2] concerns SH-SY5Y cells. Nature of the data set: Nuclear count from microscopy images (cellular growth and toxicity). Further: reference of the scale not given here. Conditions: PKIS2 primary screening.
The subject of data set [3] is SH-SY5Y cells. As to conditions: PKIS2 primary screening.
Description: The PKIS2 Library was supplied by The Structural Genomics Consortium at the University of North Carolina at Chapel Hill.
The next data set has as its system endogenous TFEB. In words: TFEB nuclear translocation, immunocytochemistry high-content imaging. The class given is cell-based. Conditions: PKIS2 primary screening.
The subject of data set [4] is SH-SY5Y cells. Nature of the data set: AK (adenylate kinase) release ToxiLight cytotoxicity assay. Further: reference of the scale not given here. As to conditions: PKIS2 primary screening.
The test system of another data set is endogenous TFE3. In words: TFE3 nuclear translocation, immunocytochemistry high-content imaging. The class given is cell-based. As to conditions: PKIS2 primary screening.
Wherever DQ Intensity is given: reference of the scale not given here.
Wherever DQ Spot is given: reference of the scale not given here.

Turning to `c1ccc(Oc2ccc(Nc3ccnc4cc(-c5ccc(CNCCN6CCOCC6)o5)ccc34)cc2)nc1` [UNC10225054A], the Outcome entry in the data set on SH-SY5Y cells [1] is on record as “LYSO TOXIC”. Besides, the “Nuclear Count” value in the data set with SH-SY5Y cells [2] worked out at 92.65. Further, in the data set with SH-SY5Y cells [3] (DQ Red BSA intensity), the “DQ Intensity” value was determined as 95.11. The “DQ Spot” value with SH-SY5Y cells [3] (DQ Red BSA spot count) is reported as 49.97. This compound also registered a TFEB % in the data set with endogenous TFEB of 22.56%. For the same compound, the AK in the data set with SH-SY5Y cells [4] is listed as 119.39. In the data set with endogenous TFE3, this compound showed a TFE3 % of 33.41%.

Consider `CC(C)NCC(Cc1ccccc1)NC(=O)c1cc(Br)c(-c2ccnc3[nH]ccc23)s1.Cl.Cl` (centres unmarked) [UNC10225078A], for which the Outcome entry with SH-SY5Y cells [1] is reported as “LYSO TOXIC”. Also, the “Nuclear Count” value with SH-SY5Y cells [2] amounted to 95.97. In addition, the “DQ Intensity” value with SH-SY5Y cells [3] (DQ Red BSA intensity) turned out to be 114.59. Besides, the “DQ Spot” value with SH-SY5Y cells [3] (DQ Red BSA spot count) was determined as 48.43. The same compound had a TFEB % with endogenous TFEB of 25.83%. Also, the AK in the data set with SH-SY5Y cells [4] worked out at 109.26. Also, the TFE3 % in the data set on endogenous TFE3 was found to be 47.42%.

`N#Cc1cnc2cc(-c3cnc(CNCCN4CCOCC4)s3)ccc2c1Nc1ccc(Oc2ccccc2)cc1` [UNC10225079A]: in the data set on SH-SY5Y cells [1], the Outcome entry is “LYSO TOXIC”. In addition, in the data set with SH-SY5Y cells [2], the “Nuclear Count” value was 110.49. The “DQ Intensity” value in the data set with SH-SY5Y cells [3] (DQ Red BSA intensity) was determined as 48.97. Moreover, the “DQ Spot” value in the data set on SH-SY5Y cells [3] (DQ Red BSA spot count) came out at 51.66. The compound also showed a TFEB % in the data set with endogenous TFEB of 5.31%. In addition, the AK with SH-SY5Y cells [4] came out at 71.03. The same compound showed a TFE3 % in the data set with endogenous TFE3 of 6.45%.

For `c1ccc(Oc2ccc(Nc3ccnc4cc(-c5ccc(CN6CCCCC6)o5)ccc34)cc2)nc1` [UNC10225094A], the Outcome result with SH-SY5Y cells [1] is recorded as “LYSO TOXIC”. Further, the “Nuclear Count” value with SH-SY5Y cells [2] was 127.56. Besides, in the data set on SH-SY5Y cells [3] (DQ Red BSA intensity), the “DQ Intensity” value was 89.29. Besides, the “DQ Spot” value in the data set on SH-SY5Y cells [3] (DQ Red BSA spot count) is on record as 45.68. Further, the TFEB % with endogenous TFEB is 15.03%. The compound also gave an AK with SH-SY5Y cells [4] of 71.77. In the data set with endogenous TFE3, this compound displayed a TFE3 % of 31.67%.

Take `Fc1cc(Cl)ccc1Nc1ccnc2cc(-c3ccc(CN4CCOCC4)o3)ccc12` [UNC10225106A]: the Outcome result in the data set on SH-SY5Y cells [1] is recorded as “LYSO TOXIC”. The “Nuclear Count” value in the data set with SH-SY5Y cells [2] was 98.32. Moreover, in the data set on SH-SY5Y cells [3] (DQ Red BSA intensity), the “DQ Intensity” value was 127.02. In addition, the “DQ Spot” value with SH-SY5Y cells [3] (DQ Red BSA spot count) is listed as 67.74. In addition, in the data set on endogenous TFEB, the TFEB % amounted to 10.01%. The compound further showed an AK with SH-SY5Y cells [4] of 77.69. In addition, the TFE3 % in the data set on endogenous TFE3 stood at 18.79%.

`Cl.Cl.NC[C@H](Cc1ccc(C(F)(F)F)cc1)NC(=O)c1cc(Br)c(-c2ccnc3[nH]ccc23)s1` [UNC10225108A]: in the data set with SH-SY5Y cells [1], the Outcome entry was “TFE3”. Further, in the data set with SH-SY5Y cells [2], the “Nuclear Count” value amounted to 144.66. In addition, in the data set with SH-SY5Y cells [3] (DQ Red BSA intensity), the “DQ Intensity” value worked out at 147.21. Besides, the “DQ Spot” value with SH-SY5Y cells [3] (DQ Red BSA spot count) was 85.33. Further, in the data set with endogenous TFEB, the TFEB % came to 5.26%. Also, in the data set with SH-SY5Y cells [4], the AK is given as 105.44. This compound also yielded a TFE3 % with endogenous TFE3 of 23.22%.

In the case of `Nc1ncc(-c2ccc3nccc(-c4ccncc4)c3c2)cc1S(=O)(=O)N1CCCCC1` [UNC10225117A], in the data set with SH-SY5Y cells [1], the Outcome entry is recorded as “TOXIC”. Also, in the data set with SH-SY5Y cells [2], the “Nuclear Count” value came out at 82.78. In addition, the “DQ Intensity” value in the data set on SH-SY5Y cells [3] (DQ Red BSA intensity) stood at 254.18. Also, in the data set with SH-SY5Y cells [3] (DQ Red BSA spot count), the “DQ Spot” value was found to be 83.51. For the same compound, the TFEB % in the data set with endogenous TFEB is recorded as 3.14%. This compound displayed an AK in the data set on SH-SY5Y cells [4] of 150.20. The compound also showed a TFE3 % with endogenous TFE3 of 4.68%.

On to `Nc1nccc2scc(-c3ccc4c(c3)CCN4C(=O)Cc3ccccc3)c12` [UNC10225119A], for which, in the data set with SH-SY5Y cells [1], the Outcome result was “LYSO TOXIC”. In addition, in the data set with SH-SY5Y cells [2], the “Nuclear Count” value stood at 119.23. For the same compound, in the data set with SH-SY5Y cells [3] (DQ Red BSA intensity), the “DQ Intensity” value is listed as 60.09. For the same compound, the “DQ Spot” value with SH-SY5Y cells [3] (DQ Red BSA spot count) is 72.10. The compound also came in with a TFEB % in the data set with endogenous TFEB of 5.51%. In the data set on SH-SY5Y cells [4], this compound came in with an AK of 128.12. Moreover, the TFE3 % with endogenous TFE3 is listed as 4.70%.

Regarding `Cl.c1ccc(Oc2ccc(Nc3ccnc4cc(-c5ccc(CN6CCNCC6)o5)ccc34)cc2)nc1` [UNC10225130B], the Outcome entry with SH-SY5Y cells [1] was “LYSO TOXIC”. Also, the “Nuclear Count” value in the data set with SH-SY5Y cells [2] was found to be 88.02. In the data set on SH-SY5Y cells [3] (DQ Red BSA intensity), the “DQ Intensity” value is given as 87.94. Besides, the “DQ Spot” value with SH-SY5Y cells [3] (DQ Red BSA spot count) is given as 55.20. The same compound registered a TFEB % with endogenous TFEB of 17.19%. This compound returned an AK with SH-SY5Y cells [4] of 101.15. In addition, the TFE3 % with endogenous TFE3 turned out to be 38.53%.

`Cl.Cn1ccc(-c2cccc(Nc3ccnc4cc(-c5nccs5)ccc34)c2)n1` [UNC10225141A]: the Outcome result in the data set on SH-SY5Y cells [1] was “TOXIC”. In addition, in the data set on SH-SY5Y cells [2], the “Nuclear Count” value was found to be 43.03. The “DQ Intensity” value with SH-SY5Y cells [3] (DQ Red BSA intensity) amounted to 161.91. Besides, the “DQ Spot” value in the data set with SH-SY5Y cells [3] (DQ Red BSA spot count) is reported as 66.27. Further, the TFEB % with endogenous TFEB came out at 12.07%. For the same compound, the AK with SH-SY5Y cells [4] came out at 174.83. The compound further returned a TFE3 % in the data set on endogenous TFE3 of 26.05%.

For `COc1cc2nccc(Nc3cccc(Oc4ccccc4)c3)c2cc1OC.Cl` [UNC10225170A], the Outcome result in the data set with SH-SY5Y cells [1] is “TFEB/TFE3”. Further, in the data set with SH-SY5Y cells [2], the “Nuclear Count” value was 91.34. In the data set on SH-SY5Y cells [3] (DQ Red BSA intensity), the “DQ Intensity” value is recorded as 93.52. In addition, the “DQ Spot” value in the data set with SH-SY5Y cells [3] (DQ Red BSA spot count) was 79.85. For the same compound, in the data set with endogenous TFEB, the TFEB % is reported as 18.56%. Besides, the AK in the data set with SH-SY5Y cells [4] was 71.46. The compound further had a TFE3 % in the data set on endogenous TFE3 of 29.93%.

For the compound `CSc1nn2c(=O)cc(N3CCOCC3)nc2n1Cc1cccc(C(F)(F)F)c1C` [UNC10243881A], the “Nuclear Count” value with SH-SY5Y cells [2] turned out to be 93.06. In the data set on SH-SY5Y cells [3], the “DQ Intensity” value is 80.81 and the “DQ Spot” value is 106.13. Besides, the TFEB % in the data set on endogenous TFEB is on record as 6.63%. The compound further showed an AK in the data set with SH-SY5Y cells [4] of 100.35. In addition, the TFE3 % in the data set on endogenous TFE3 is listed as 9.67%.
